Source: patent US20260062443A1 (ALEXION PHARMACEUTICALS, INC., priority 2022, published 2026)

molecular target: T1, Human complement C1s enzyme (Homo sapiens, UniProt P09871); assay: Human C1s enzyme assay; assay type: biochemical; conditions: human complement C1s enzyme 1.16 nM, substrate Z-L-Lys-SBzl 100 μM, 5 min preincubation; read-out: IC50 (Stars), C1s Inhibiting Activity
T1 sequence (P09871 438-688 limits assumed): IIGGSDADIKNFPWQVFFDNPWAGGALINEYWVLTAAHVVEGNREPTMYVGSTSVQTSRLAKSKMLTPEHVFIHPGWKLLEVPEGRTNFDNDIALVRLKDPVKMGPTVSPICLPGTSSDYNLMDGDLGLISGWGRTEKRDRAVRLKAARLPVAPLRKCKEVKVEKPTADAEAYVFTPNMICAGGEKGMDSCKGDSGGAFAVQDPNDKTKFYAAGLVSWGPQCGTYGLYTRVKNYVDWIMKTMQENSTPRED
T1 sequence (P09871 16-437 partner limits assumed): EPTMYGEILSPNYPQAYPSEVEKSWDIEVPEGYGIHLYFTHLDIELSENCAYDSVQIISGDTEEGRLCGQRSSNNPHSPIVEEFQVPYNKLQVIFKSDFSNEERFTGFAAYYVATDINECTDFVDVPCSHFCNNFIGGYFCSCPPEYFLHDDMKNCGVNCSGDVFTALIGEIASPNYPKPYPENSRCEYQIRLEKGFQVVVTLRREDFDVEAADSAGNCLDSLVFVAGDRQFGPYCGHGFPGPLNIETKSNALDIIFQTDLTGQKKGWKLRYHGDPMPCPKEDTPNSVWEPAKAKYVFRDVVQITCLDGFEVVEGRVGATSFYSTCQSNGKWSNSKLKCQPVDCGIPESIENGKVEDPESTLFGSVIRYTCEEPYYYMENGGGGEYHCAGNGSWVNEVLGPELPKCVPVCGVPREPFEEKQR
How it was run: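 IC50 from nonlinear regression of reaction rates versus compound concentration, with rates taken from A405 recorded at 30 s intervals over 30 min after adding 100 μM Z-L-Lys-SBzl plus 100 μM DTNB. Enzyme was human C1s purified from serum, 1.16 nM, given 5 min compound preincubation at room temperature, pH 7.5 Tris/1 M NaCl.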

Row | SMILES | IC50
1 | C[C@@H](NC(=O)[C@@H]1C[C@H](C2OCCCO2)CN1C(=O)CNC(=O)c1ccc2c(c1)Oc1ccccc1S2)c1cc2cnccc2[nH]1 [Compound 146, (2S,4S)-N-((R)-1-(1H-pyrrolo[3,2-c]pyridin-2-yl)ethyl)-4-(1,3-dioxan-2-yl)-1-((phenoxathiine-3-carbonyl)glycyl)pyrrolidine-2-carboxamide] | < 100 nM
2 | C[C@H](NC(=O)[C@@H]1C[C@@H](OC(F)F)CN1C(=O)CNC(=O)c1ccc(Oc2ccccc2)cc1)c1cc2cnccc2[nH]1 [Compound 22, (2S,4R)-N-((S)-1-(1H-pyrrolo[3,2-c]pyridin-2-yl)ethyl)-4-(difluoromethoxy)-1-((4-phenoxybenzoyl)glycyl) pyrrolidine-2-carboxamide] | 100 to 1000 nM
3 | C[C@@H](NC(=O)[C@@H]1C[C@@H](OC(F)F)CN1C(=O)CN1Cc2cc(-c3ccc(F)cc3Cl)ccc2C1=O)c1cc2cnccc2[nH]1 [Compound 124, (2S,4R)-N-((R)-1-(1H-pyrrolo[3,2-c]pyridin-2-yl)ethyl)-1-(2-(5-(2-chloro-4-fluorophenyl)-1-oxoisoindolin-2-yl)acetyl)-4-(difluoromethoxy)pyrrolidine-2-carboxamide] | < 100 nM
4 | C[C@@H](NC(=O)[C@@H]1C[C@@H](OC(F)F)CN1C(=O)CN1Cc2cc(-c3ccc(F)cc3F)ccc2C1=O)c1cc2cnccc2[nH]1 [Compound 91, (2S,4R)-N-((R)-1-(1H-pyrrolo[3,2-c]pyridin-2-yl)ethyl)-4-(difluoromethoxy)-1-(2-(5-(2,4-difluorophenyl)-1-oxoisoindolin-2-yl)acetyl)pyrrolidine-2-carboxamide] | < 100 nM
5 | O=C(NCC(=O)N1C[C@H](OC(F)F)C[C@H]1C(=O)NCc1cc2cnccc2[nH]1)c1cccc(Oc2cc(F)ccc2F)c1 [Compound 295, (2S,4R)-N-((1H-pyrrolo[3,2-c]pyridin-2-yl)methyl)-4-(difluoromethoxy)-1-((3-(2,5-difluorophenoxy)benzoyl)glycyl) pyrrolidine-2-carboxamide] | < 100 nM
6 | Cc1ccc2oc3ccc(C(=O)NCC(=O)N4C[C@H](OC(F)F)C[C@H]4C(=O)NCc4cc5cnccc5[nH]4)cc3c2c1 [Compound 334, (2S,4R)-N-((1H-pyrrolo[3,2-c]pyridin-2-yl)methyl)-4-(difluoromethoxy)-1-((8-methyldibenzo[b,d]furan-2-carbonyl)glycyl)pyrrolidine-2-carboxamide] | < 100 nM
7 | Cc1nc(N)ccc1CNC(=O)[C@@H]1C[C@]2(C)C[C@@H]2N1C(=O)CNC(=O)c1ccc2c(c1)Oc1ccccc1S2 [Compound 110, (1S,3S,5S)-N-((6-amino-2-methylpyridin-3-yl)methyl)-5-methyl-2-((phenoxathiine-3-carbonyl)glycyl)-2-azabicyclo[3.1.0]hexane-3-carboxamide] | > 1000 nM
8 | O=C(NCC(=O)N1C[C@H](OC(F)F)C[C@H]1C(=O)NCc1ccc2c(c1)CNC2)c1ccc2c(c1)Oc1ccccc1S2 [Compound 228, (2S,4R)-4-(difluoromethoxy)-N-(isoindolin-5-ylmethyl)-1-((phenoxathiine-3-carbonyl)glycyl)pyrrolidine-2-carboxamide] | < 100 nM
9 | C[C@@H](NC(=O)[C@@H]1CC(COCCCCN)CN1C(=O)CNC(=O)c1ccc2c(c1)Oc1ccccc1S2)c1cc2cnccc2[nH]1 (stereo partly drawn) [Compound 288, (2S)-N-((R)-1-(1H-pyrrolo[3,2-c]pyridin-2-yl)ethyl)-4-((4-aminobutoxy)methyl)-1-((phenoxathiine-3-carbonyl)glycyl)pyrrolidine-2-carboxamide] | < 100 nM
10 | CCc1ccc(Oc2cc(F)cc(C(=O)NCC(=O)N3C[C@H](OC(F)F)C[C@H]3C(=O)NCc3cc4cnccc4[nH]3)c2)cc1 [Compound 370, (2S,4R)-N-((1H-pyrrolo[3,2-c]pyridin-2-yl)methyl)-4-(difluoromethoxy)-1-((3-(4-ethylphenoxy)-5-fluorobenzoyl)glycyl)pyrrolidine-2-carboxamide] | < 100 nM
11 | C[C@@H](NC(=O)[C@@H]1C[C@@H](OC(F)(F)F)CN1C(=O)CNC(=O)c1ccc2c(c1)Oc1ccccc1S2)c1cc2cnccc2[nH]1 [Compound 251, (2S,4R)-N-((R)-1-(1H-pyrrolo[3,2-c]pyridin-2-yl)ethyl)-1-((phenoxathiine-3-carbonyl)glycyl)-4-(trifluoromethoxy)pyrrolidine-2-carboxamide] | < 100 nM
12 | O=C(NCC(=O)N1C[C@H](OC(F)F)C[C@H]1C(=O)NCc1cc2cnccc2[nH]1)c1cccc(Oc2ccc(F)cc2F)c1 [Compound 259, (2S,4R)-N-((1H-pyrrolo[3,2-c]pyridin-2-yl)methyl)-4-(difluoromethoxy)-1-((3-(2,4-difluorophenoxy)benzoyl)glycyl)pyrrolidine-2-carboxamide] | < 100 nM
13 | Cc1ccc(-c2ccc(C(=O)NCC(=O)N3CC4(C[C@H]3C(=O)NCc3cc5cnccc5[nH]3)OCCO4)cc2)s1 [Compound 297, (S)-N-((1H-pyrrolo[3,2-c]pyridin-2-yl)methyl)-7-((4-(5-methylthiophen-2-yl)benzoyl)glycyl)-1,4-dioxa-7-azaspiro[4.4]nonane-8-carboxamide] | < 100 nM
14 | C[C@@]12C[C@@H]1N(C(=O)CNC(=O)CCCOc1ccccc1)[C@H](C(=O)OCc1cc3c(cn1)CNC3)C2 [Compound 66, (2,3-dihydro-1H-pyrrolo[3,4-c]pyridin-6-yl)methyl (1S,3S,5S)-5-methyl-2-((4-phenoxybutanoyl)glycyl)-2-azabicyclo[3.1.0]hexane-3-carboxylate] | > 1000 nM
15 | C[C@@H](NC(=O)[C@@H]1C[C@@H](C(F)(F)F)CN1C(=O)CNC(=O)c1ccc2c(c1)Oc1ccccc1S2)c1cc2cnccc2[nH]1 [Compound 176, (2S,4R)-N-((R)-1-(1H-pyrrolo[3,2-c]pyridin-2-yl)ethyl)-1-((phenoxathiine-3-carbonyl)glycyl)-4-(trifluoromethyl)pyrrolidine-2-carboxamide] | < 100 nM
16 | O=C(NCC(=O)N1C[C@H](OC(F)F)C[C@H]1C(=O)N[C@H](CO)c1cc2cnccc2[nH]1)c1ccc2c(c1)Oc1ccccc1S2 [Compound 93, (2S,4R)-4-(difluoromethoxy)-N-((S)-2-hydroxy-1-(1H-pyrrolo[3,2-c]pyridin-2-yl)ethyl)-1-((phenoxathiine-3-carbonyl)glycyl)pyrrolidine-2-carboxamide] | < 100 nM
17 | O=C(NCC(=O)N1CC2(C[C@H]1C(=O)NCc1cc3cc(Br)ccc3[nH]1)OCCO2)c1ccc2c(c1)Oc1ccccc1S2 [Compound 55, (S)-N-((5-bromo-1H-indol-2-yl)methyl)-7-((phenoxathiine-3-carbonyl)glycyl)-1,4-dioxa-7-azaspiro[4.4]nonane-8-carboxamide] | > 1000 nM
18 | Cc1ccc(Oc2cccc(C(=O)NCC(=O)N3[C@H]4C[C@@]4(C)C[C@H]3C(=O)NCc3cc4cnccc4[nH]3)c2)c(F)c1 [Compound 315, (1S,3S,5S)-N-((1H-pyrrolo[3,2-c]pyridin-2-yl)methyl)-2-((3-(2-fluoro-4-methylphenoxy)benzoyl)glycyl)-5-methyl-2-azabicyclo[3.1.0]hexane-3-carboxamide] | < 100 nM
19 | O=C(NCC(=O)N1C[C@H](OC(F)F)C[C@H]1C(=O)NCc1ccc2scnc2c1)c1ccc2c(c1)Oc1ccccc1S2 [Compound 222, (2S,4R)-N-(benzo[d]thiazol-5-ylmethyl)-4-(difluoromethoxy)-1-((phenoxathiine-3-carbonyl)glycyl)pyrrolidine-2-carboxamide] | > 1000 nM
